Data published in patent publication US20230340012A1, “NATURAL AND SYNTHETIC COMPOUNDS FOR TREATING CANCER AND OTHER DISEASES” (PACIFIC ARROW LIMITED, priority 2009, published 2023).
In brackets after ≈: the same amount, converted by molar mass.

Assays:
[1] = test system: DU145; assay: MTT assay, prostate (DU145); assay type: cell-based, human
Procedure: (§1) Cells. HTB-9 (bladder), HeLa-S3 (cervix), DU145 (prostate), H460 (lung), MCF-7 (breast), K562 (leukemia), HCT116 (colon), HepG2 (liver), U2OS (bone), T98G (brain), SK-MEL-5 (Skin) and OVCAR 3, ES2 (ovary), Pancreas (Capan), Mouth (KB), Kidney(A498).
(§2) MTT Assay. The procedure for MTT assay followed the method described by Carmichael et al. (1987) with modifications. The cells were seeded into a 96-well plate at for 24 hours before drug-treatment. The cells were then exposed to the drugs for 48, 72, or 96 hours. After the drug-treatment, MTT (0.5 mg/mL) was added to cultures and incubated for an hour. The formazan (product of the reduction of tetrazolium by viable cells) formed and was dissolved with DMSO and the O.D. at 490 nm, and was measured by an ELISA reader. The MTT level of the cells before drug-treatment was also measured (T0). The % cell-growth (%G) is calculated as: %G = (TD-T0 / TC-T0) x 100(1), where TC or TD represents O.D. readings of control or drug-treated cells. When T0 > TD, then the cytotoxicity (LC) expressed as % of the control is calculated as: %LC = (TD-T0 / T0) × 100(2).

[2] = test system: A498; assay: MTT assay, kidney (A498); assay type: cell-based, human
Procedure: as §1, §2

[3] = test system: H460; assay: MTT assay, lung (H460); assay type: cell-based, human; conditions: for IC50 of lung (H460): MTT
Procedure: as §1, §2
Methods: • A. Cells • -- H460 cells are derived from a Human Lung large cell carcinoma. Cells were grown in RPMI 1640 medium supplemented with 10% FCS, antibiotics and glutamine. 5000 cells were seeded in a well (96-welled plate) for one day before drug-treatment • B. Drug treatment: • -- Drug: Tig-S (stored as a 1000x stock solution in DMSO) was used. • -- Drug concentration used: from 0.15 - 20 ug/ml. • -- Drug-treatment was carried out for 1, 2 and 4 days. For the 4 days incubation, cells were fed with fresh medium (with drug) on day 2. • C. At the end of the drug-treatment, cytotoxic test was performed with MTT assay. Results: • 1. Tig-S inhibits H460 cells’ growth with the IC50 of drug 3 ug/ml. • 2. […] cells growth inhibition was observed beyond drug 5 ug/ml. • 3. No dead cell was found at drug concentration in 20 ug/ml.

[4] = test system: HeLa; assay: MTT assay, cervix (HeLa); assay type: cell-based, human
Procedure: as §1, §2

[5] = test system: HCT116; assay: MTT assay, colon (HCT116); assay type: cell-based, human
Procedure: as §1, §2

[6] = test system: ES2 cells; assay: Inhibition of cell adhesion, ES2; assay type: cell-based, human; conditions: for ES2 cells attached to flasks compared to no drug controls / unattached cells alive: 5 ug/ml; for ES2 cells attached to flasks compared to no drug controls: 5 hours; for unattached cells alive: trypan Blue exclusion; for unattached cells alive / cells attached to flasks: ES2 or Hey8A; for cells attached to flasks: 10 ug/ml
Procedure: (§3) Methods and Results. ES2 or Hey8A cells were plated in T25 flasks with medium containing 5 ug/ml of compounds selected from structure (2A) including E4A-Tig-R, E4A-Tig-V, E4A-Tig-S, E4A-Tig-N, E4A-Tig-Q, E4A-Tig-T. Cultures were incubated for 5 hours. Attached cells were removed from flasks by trypsinization and the numbers/amounts were counted. Compared to no drug controls, 80 ± 4% of ES2 cells and 60 ± 4% of Hey8A cells were found attached to flasks under this condition. At 5 ug/ml of above compounds, over 90% of unattached cells are alive as determined by the trypan Blue exclusion assay and by their ability to re-attach to flasks when plating in medium without tested compounds. However, with 10 ug/ml tested compounds, less than 40% of cells attached to flasks and many of them are dead cells.

[7] = test system: Hey8A cells; assay: Inhibition of cell adhesion, Hey8A; assay type: cell-based; conditions: 5 ug/ml, 5 hours
Procedure: as §3

[8] = test system: HTB-9; assay: MTT assay, bladder (HTB-9); assay type: cell-based, human
Procedure: as §1, §2

IC50 of prostate (DU145) [1] | IC50 of lung (H460) [3] | IC50 of cervix (HeLa) [4] | IC50 of colon (HCT116) [5] | Molecule | IC50 of kidney (A498) [2] | ES2 cells attached to flasks compared to no drug controls [6] | unattached cells alive [6] | cells attached to flasks [6] | Hey8A cells attached to flasks compared to no drug controls [7] | IC50 of bladder (HTB-9) [8] | IC50, lung H460 cells growth ([3]; 4 days) | IC50, H460 cells' growth ([3]; Experiment 32, treatment 1, 2 and 4 days) | dead cells, H460 ([3]; at 20 ug/ml) | IC50, lung H460 cells growth ([3]; one day)
16 µg/mL | 21 µg/mL | 18 µg/mL | 23 µg/mL | CC=C(C)C(=O)OCC1(C)C(O)CCC2(C)C1CCC1(C)C2CC=C2C3CC(C)(C)C(O)C(OC(=O)C(C)=CC)C3(COC(=O)C(C)=CC)C(O)CC21C (stereo not drawn) [Tig-T] | 15 µg/mL | 80 ± 4% | over 90% | less than 40% | 60 ± 4% |  |  |  |  | 
3.6 µg/mL | 4.8 µg/mL |  | 5.2 µg/mL | 24,28-O-Tigloyl-3β,16α, 21β, 22a, 24β, 28-hexahydroxyolean-12-ene [Tig-R] | 3.5 µg/mL | 80 ± 4% | over 90% | less than 40% | 60 ± 4% | 2.5 µg/mL |  |  |  | 
4.8 µg/mL | 13 µg/mL | 15 µg/mL | 15 µg/mL | CC=C(C)C(=O)OCC1(C)C(O)CCC2(C)C1CCC1(C)C2CC=C2C3CC(C)(C)C(O)C(O)C3(CO)C(O)CC21C (stereo not drawn) [Tig-N] | 11 µg/mL | 80 ± 4% | over 90% | less than 40% | 60 ± 4% | 7.5 µg/mL |  |  |  | 

Molecule | IC50 of prostate (DU145) [1] | IC50 of lung (H460) [3] | IC50 of cervix (HeLa) [4] | IC50 of colon (HCT116) [5] | IC50 of kidney (A498) [2] | ES2 cells attached to flasks compared to no drug controls [6] | unattached cells alive [6] | cells attached to flasks [6] | Hey8A cells attached to flasks compared to no drug controls [7] | IC50 of bladder (HTB-9) [8] | IC50, lung H460 cells growth ([3]; 4 days) | IC50, H460 cells' growth ([3]; Experiment 32, treatment 1, 2 and 4 days) | dead cells, H460 ([3]; at 20 ug/ml) | IC50, lung H460 cells growth ([3]; one day)
CC=C(C)C(=O)OCC1(C)C(O)CCC2(C)C1CCC1(C)C2CC=C2C3CC(C)(C)C(OC(=O)C(C)=CC)C(O)C3(CO)C(O)CC21C (stereo not drawn) [Tig-S] | 4.3 µg/mL | 5.6 µg/mL | 7 µg/mL | 6.6 µg/mL | 4.8 µg/mL | 80 ± 4% | over 90% | less than 40% | 60 ± 4% | 3.5 µg/mL | 3 µg/mL (≈ 4.47 µM) | 3 µg/mL (≈ 4.47 µM) | No dead cell | 3.4 µg/mL (≈ 5.07 µM)
